{"source": "BindingDB's records for doi:10.1016/S0960-894X(97)00207-2", "about": "(1997)", "molecular_target": "Beta-2 adrenergic receptor (Cavia porcellus) (UniProt Q8K4Z4)", "sequence (Q8K4Z4 whole entry, looked up)": "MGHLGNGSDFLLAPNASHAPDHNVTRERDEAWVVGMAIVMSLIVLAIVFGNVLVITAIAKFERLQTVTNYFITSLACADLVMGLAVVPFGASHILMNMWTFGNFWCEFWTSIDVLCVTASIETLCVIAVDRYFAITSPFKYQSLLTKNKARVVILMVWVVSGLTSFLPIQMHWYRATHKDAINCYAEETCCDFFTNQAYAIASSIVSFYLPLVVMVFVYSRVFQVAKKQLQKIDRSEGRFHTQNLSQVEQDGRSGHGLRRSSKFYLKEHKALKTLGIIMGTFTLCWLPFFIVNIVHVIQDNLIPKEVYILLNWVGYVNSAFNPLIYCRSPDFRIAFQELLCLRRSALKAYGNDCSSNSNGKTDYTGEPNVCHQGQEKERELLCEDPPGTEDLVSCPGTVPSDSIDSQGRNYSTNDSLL", "assay": "Tested for beta-2-adrenergic blocking effect by measuring the ability to inhibit the relaxing effect of epinephrine on the isolated tracheal muscle of guinea pigs", "data": [{"smiles": "COCCc1ccc(OC(F)(F)[C@@H](O)CNC(C)C)cc1", "note": "[(S)-1,1-Difluoro-3-isopropylamino-1-[4-(2-methoxy-ethyl)-phenoxy]-propan-2-ol]", "values": [{"measurement": "IC50", "result": 2150, "unit": "nM"}]}]}
